Experiments:
eye [1] = assay: Comfort and tolerability after instillation (stinging, redness, ciliary spasm/brow ache, blur, dimming); type: in vivo, human; conditions: for night vision / dimming: pH 7.5
Procedure: Ciliary spasms scores correspond to the following: 0=no discomfort; 0.5=slight sting; 1=noticeable squeeze/discomfort; 2=pain for less than 30 minutes; 3=pain for 1 hour or more; and 4=severe to intolerable pain.

pupil = conditions: cited from earlier work
eye [2] = conditions: brimonidine 0.20% w/v (Alphagan®) twice daily; cited from earlier work
presbyopic subjects [3] = conditions: pilocarpine with oxymetazoline, US 2014/0113946; cited from earlier work
presbyopic subjects [4] = assay: Near and distance visual acuity after topical instillation (lines of improvement, onset, duration, efficacy index); type: in vivo, human
Procedure: As aceclidine is an […], the clinical effectiveness may vary with different ratios. For the present studies a nearly exact 50:50 ratio of stereoisomers was measured as best determined by polarimetry.
In brief, the score is calculated by multiplying the lines of improvement in near visual acuity by the number of hours the improvement lasts. For example, a score of: 5 is equal to +1 lines of improvement in near visual acuity for 5 hours; 10 is equal to +1.5 lines of improvement for 6.7 hours; 15 is equal to 2 lines of improvement for 7.5 hours; 20 is equal to 2.5 lines of improvement for 8 hours; 25 is equal to 3+ lines of improvement for 8.3 hours and 35 is equal to 3.75+ lines of improvement for 9 hours.
The subject instilled 2 drops of the above formulation in each eye as 1 single drop each eye and a second drop after 5 minutes.
2 subjects instilled 2 drops each of the above formulation in each eye about 5 minutes apart.
A 1.75% aceclidine in saline solution was formulated. One drop was instilled into each eye of a presbyopic subject. The visual acuity of the subject was tested both before and after instillation using a LogMAR chart.
Formulation AB#1 was instilled via 2-drops with a 5-minute interval in the eyes of a person. […] All near and distance vision with over-refraction was red-green adjusted to emmetropia. Near vision at 1 hour post instillation was measured. Further, duration to 20.40 vision was measured.

[5] = Stability of aceclidine in storage (HPLC); type: physicochemical; conditions: for Stability of Aceclidine: same composition
Procedure: 20 samples of the above composition were divided evenly and stored at 25° C. and 4° C. Prior to storage, initial concentrations of aceclidine were measured using […] (“HPLC”). The amount of aceclidine in each solution was calculated by the area under the principal peak compared to a reference solution of aceclidine. Samples were then subject to storage for 3 months. Aceclidine measurements were taken at 1, 2 and 3 months.

[6] = post instillation, 1.75% aceclidine in saline solution

## tropicamide
Eye [1]; 0.035% w/v tropicamide in 1.55% w/v aceclidine composition
  night vision / dimming: slight dimming
Eye [1]; 0.042% w/v tropicamide in 1.55% w/v aceclidine composition
  night vision / dimming: normal indoor night vision
Eye [1]; tropicamide 0.01% w/v with aceclidine
  effect on brow ache: slightly reduce brow ache
Eye [1]; tropicamide 0.014% w/v with aceclidine
  effect on brow ache: reduce brow ache
Eye [1]; tropicamide 0.021% w/v with aceclidine
  effect on brow ache: further reduce brow ache
Eye [1]; tropicamide 0.030% w/v with aceclidine
  effect on brow ache: further reduce brow ache
Eye [1]; tropicamide from 0.028% to 0.060% w/v with aceclidine
  effect on brow ache: completely eliminate brow ache
Eye [1]; tropicamide from 0.04% to about 0.07% w/v with aceclidine
  effect on brow ache: completely eliminate brow ache

## Brc1c(NC2=NCCN2)ccc2nccnc12 [brimonidine]
pupil; brimonidine 0.20% w/v topically for night vision, within four weeks of use
  tachyphylaxis of pupil modulation: ~100 % of treated subjects
pupil; brimonidine, typically
  duration of miotic effect: about four hours
pupil; brimonidine
  transiently induced miosis: 1.0-2.0 mm
Eye [2]
  rebound redness: 25 % of patients

## CC[C@@H]1C(=O)OC[C@@H]1Cc1cncn1C [pilocarpine]
Presbyopic subjects [3]
  time until full effect became diminished: about four hours

## CC(=O)OC1CN2CCC1CC2 (racemic) [aceclidine]
Presbyopic subjects [4]; FIG. 2, aceclidine in carrier: 5.5% HPβCD, 0.75% CMC, 0.25% NaCl, 0.01% BAK
  near vision: < 20.20
Presbyopic subjects [4]; after instillation, 1.75% aceclidine in saline solution
  LogMAR score at 1-meter distance: −0.12 LogMAR
Presbyopic subjects [4]; after instillation, 1.75% aceclidine in saline solution, one drop each eye, 0.50 prior
  LogMAR score at 45 centimeters distance: 0.22 LogMAR
Presbyopic subjects [4]; [6]
  Noticeable degradation in reading distance acuity began: 4 h
  improved reading distance acuity maintained: 3.5 h
[5]; 4° C., 1 month
  Stability of Aceclidine: 93%
[5]; 4° C., 2 months
  Stability of Aceclidine: 92%
[5]; 4° C., 3 months
  Stability of Aceclidine: 88%
[5]; 4° C., Initial
  Stability of Aceclidine: 100%
[5]; 25° C., 1 month
  Stability of Aceclidine: 92%
[5]; 25° C., 2 months
  Stability of Aceclidine: 75%
[5]; 25° C., 3 months
  Stability of Aceclidine: 50%
[5]; 25° C., Initial, 1.50% aceclidine, 0.042% tropicamide, 5.5% polyoxyl 40 stearate, 2.5% mannitol, 3 mM citrate, pH 4.75
  Stability of Aceclidine (amount vs reference): 100%
Eye [1]; 1.35% w/v aceclidine, Example 2
  Stinging, lasting: 2 to 5 s
